This passage reports EC50 results from patent US12583861B2, “Derivatives of imidazo[4,5-d]pyridazine, their preparation and their therapeutic application” (SANOFI, priority 2021, dated 2026).

A value given as a limit tells only on which side of the number the result lay.

Assay type in all cases: cell-based
The test system of one assay is IL29. The assay can be described thus: IL29 cytokine activation in human PBMC (MSD assay). On the procedure:
(§1) The other below tests involving measuring the in vitro activity of some compounds of the disclosure on cytokines IFN-α2a, IL-6, IL29 and TNF-α were carried out using human PBMC (PBMCs).
(§2) The activity described below, with respect to TLR7, TLR8, IFN-α2a, IL-6, IL29 and TNF-α, is given by the half maximal effective concentration (EC50), which corresponds to the concentration required to obtain a 50% of the activation. The lower the EC50, the less the concentration of the compound is required to produce 50% of maximum activation and the higher the potency.
(§3) In Vitro Assay to Determine IFN-α2a, IL-6, IL29 and TNF-α Cytokine Activation:
(§4) Peripheral blood mononuclear cells were isolated by Ficoll density gradient centrifugation from peripheral blood samples obtained from healthy donors (EFS). Isolated PBMCs are washed twice with PBS and resuspended in RPMI-1640 medium supplement with 10% fetal bovine serum (FBS) at 5.10^5 cells/well in a 96-well plate. The cells were then incubated with the compounds to test at various doses (20 μM to 4.8.10-6 μM final) for 24 h at 37° C., 5% CO2. After 24 h treatment, the plates are centrifuged and the supernatant were collected and assayed for cytokines IFN-α2a, IL-6, IL29 and TNF-α using the Meso Scale Discovery (MSD) assay platform according to the manufacturer's instructions. Briefly, 25 μL of cell culture supernatants were incubated for 1 h at Room Temperature (RT) in custom Multi-Spot 96-well plates prior coated with capture antibodies. After washing, SULFO-TAG® labeled detection antibodies were added to each of the wells and incubated for 1 h RT before adding a read buffer.

A further assay has as its system TNF-α. As to the kind of experiment: TNF-α cytokine activation in human PBMC (MSD assay). On the procedure:
as §1, §2, §3, §4

In the next assay the target is T1, human TLR7 (Homo sapiens, UniProt Q9NYK1).
T1 construct: host or cells: HEK293 (HEK-Blue hTLR7)
T1 sequence (Q9NYK1 27-1049): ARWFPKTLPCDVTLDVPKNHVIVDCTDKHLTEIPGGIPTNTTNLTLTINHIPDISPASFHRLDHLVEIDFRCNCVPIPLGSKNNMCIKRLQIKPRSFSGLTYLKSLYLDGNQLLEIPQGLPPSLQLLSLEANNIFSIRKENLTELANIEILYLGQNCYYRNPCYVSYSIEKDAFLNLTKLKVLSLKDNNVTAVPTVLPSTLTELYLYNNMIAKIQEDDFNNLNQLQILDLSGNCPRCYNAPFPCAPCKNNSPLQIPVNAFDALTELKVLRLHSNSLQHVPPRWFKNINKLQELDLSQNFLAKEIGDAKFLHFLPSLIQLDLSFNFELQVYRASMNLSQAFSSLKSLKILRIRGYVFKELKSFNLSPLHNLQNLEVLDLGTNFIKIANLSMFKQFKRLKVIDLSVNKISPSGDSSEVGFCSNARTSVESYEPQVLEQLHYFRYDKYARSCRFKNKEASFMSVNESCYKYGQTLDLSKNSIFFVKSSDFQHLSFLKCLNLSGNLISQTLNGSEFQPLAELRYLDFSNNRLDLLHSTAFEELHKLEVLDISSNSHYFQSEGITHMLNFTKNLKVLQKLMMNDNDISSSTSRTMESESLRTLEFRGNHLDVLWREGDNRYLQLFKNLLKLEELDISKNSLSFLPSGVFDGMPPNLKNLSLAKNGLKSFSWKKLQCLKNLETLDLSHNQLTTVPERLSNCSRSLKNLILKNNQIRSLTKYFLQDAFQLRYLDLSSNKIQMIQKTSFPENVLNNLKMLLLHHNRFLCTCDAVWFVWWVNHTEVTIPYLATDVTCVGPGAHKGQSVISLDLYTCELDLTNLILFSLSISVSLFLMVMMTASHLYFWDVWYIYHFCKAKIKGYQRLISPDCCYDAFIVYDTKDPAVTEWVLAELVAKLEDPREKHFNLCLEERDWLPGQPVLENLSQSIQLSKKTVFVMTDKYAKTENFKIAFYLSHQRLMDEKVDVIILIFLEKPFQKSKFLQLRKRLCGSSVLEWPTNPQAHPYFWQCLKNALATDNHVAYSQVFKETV
As to the kind of experiment: HEK-Blue hTLR7 reporter cell assay (SEAP, NF-kB/AP-1) for stimulation of human TLR7. As to conditions: HEK-Blue hTLR7 cells, 24 h incubation, SEAP readout; read-out: TLR7_EC50. Put shortly:
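HEK293 cells expressing hTLR7 with NF-κB/AP-1-driven SEAP reporter, seeded 3.10E4 cells/well, pre-incubated 18–24 h, then exposed to 3-fold compound dilutions (0.01–20 μM) for 24 h at 37 °C. Supernatant SEAP read with QUANTI-Blue; EC50 as concentration giving 50% activation.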

In the case of `CCCCc1nc2c(N)nnc(OC(C)C)c2n1C[C@H]1CCC[C@@H](N)C1` (racemic) [Compound 23, 1-(((1S,3R)-3-aminocyclohexyl)methyl)-2-butyl-7-isopropoxy-1H-imidazo[4,5-d]pyridazin-4-amine (and enantiomer)], the EC50 in the assay with IL29 (Homo sapiens, PBMC, 24 h) turned out to be 3 nM; in the assay on TNF-α (Homo sapiens, PBMC, 24 h), 5480 nM; on human TLR7, 172 nM.
The corresponding values for `CCCCc1nc2c(N)nnc(OC(C)C)c2n1Cc1ccc(OC)cc1` [Compound 1, 2-butyl-7-isopropoxy-1-(4-methoxybenzyl)-1H-imidazo[4,5-d]pyridazin-4-amine] are 173 nM, 712 nM and 103 nM.
With `CCCCc1nc2c(N)nnc(NC(C)C)c2n1Cc1ccc(OC)cc1` [Compound 2, 2-butyl-N7-isopropyl-1-(4-methoxybenzyl)-1H-imidazo[4,5-d]pyridazin-4,7-diamine], the EC50 in the assay with IL29 (Homo sapiens, PBMC, 24 h) stood at 6 nM; in the assay on TNF-α (Homo sapiens, PBMC, 24 h), 573 nM; at human TLR7, 53 nM.
In the case of `CCCCc1nc2c(N)nnc(SC(C)C)c2n1Cc1ccc(OC)cc1` [Compound 3, 2-butyl-7-(isopropylthio)-1-(4-methoxybenzyl)-1H-imidazo[4,5-d]pyridazin-4-amine], the EC50 came to 83 nM in the assay with IL29 (Homo sapiens, PBMC, 24 h); 2820 nM in the assay on TNF-α (Homo sapiens, PBMC, 24 h); 566 nM at human TLR7.
The corresponding values for `CCCCc1nc2c(N)nnc(OCCOC)c2n1Cc1ccc(OC)cc1` [Compound 4, 2-butyl-1-(4-methoxybenzyl)-7-(2-methoxyethoxy)-1H-imidazo[4,5-d]pyridazin-4-amine] are 795 nM, above 20000 nM and 1260 nM.
In the case of `C=CCOc1nnc(N)c2nc(CCCC)n(Cc3ccc(OC)cc3)c12` [Compound 6, 7-(allyloxy)-2-butyl-1-(4-methoxybenzyl)-1H-imidazo[4,5-d]pyridazin-4-amine], the EC50 with IL29 (Homo sapiens, PBMC, 24 h) amounted to 62 nM; in the assay with TNF-α (Homo sapiens, PBMC, 24 h), 641 nM; on human TLR7, 295 nM.
Consider `CCCCc1nc2c(N)nnc(OC3CCCC3)c2n1Cc1ccc(OC)cc1` [Compound 9, 2-butyl-7-(cyclopentyloxy)-1-(4-methoxybenzyl)-1H-imidazo[4,5-d]pyridazin-4-amine], for which the EC50 in the assay on IL29 (Homo sapiens, PBMC, 24 h) turned out to be 15 nM; in the assay with TNF-α (Homo sapiens, PBMC, 24 h), 380 nM; on human TLR7, 135 nM.
The corresponding values for `CCCCc1nc2c(N)nnc(N3CCCC3)c2n1Cc1ccc(OC)cc1` [Compound 10, 2-butyl-1-(4-methoxybenzyl)-7-(pyrrolidin-1-yl)-1H-imidazo[4,5-d]pyridazin-4-amine] are 16 nM, 453 nM and 120 nM.
For `CCCCc1nc2c(N)nnc(-c3cc[nH]c3)c2n1Cc1ccc(OC)cc1` [Compound 14, 2-butyl-1-(4-methoxybenzyl)-7-(1H-pyrrol-3-yl)-1H-imidazo[4,5-d]pyridazin-4-amine], in that order: 20 nM, 708 nM and 219 nM.
The corresponding values for `C=C(C)c1nnc(N)c2nc(CCCC)n(Cc3ccc(OC)cc3)c12` [Compound 17, 2-butyl-1-(4-methoxybenzyl)-7-(prop-1-en-2-yl)-1H-imidazo[4,5-d]pyridazin-4-amine] are 29 nM, above 20000 nM and 155 nM.
As for `CCCCc1nc2c(N)nnc(C(C)C)c2n1Cc1ccc(OC)cc1` [Compound 18, 2-butyl-7-isopropyl-1-(4-methoxybenzyl)-1H-imidazo[4,5-d]pyridazin-4-amine], the EC50 was determined as 109 nM in the assay with IL29 (Homo sapiens, PBMC, 24 h); 2810 nM with TNF-α (Homo sapiens, PBMC, 24 h); 355 nM on human TLR7.
As to `CCCCc1nc2c(N)nnc(OC(C)C)c2n1Cc1ccc(CN)cc1` [Compound 21, 1-(4-(aminomethyl)benzyl)-2-butyl-7-isopropoxy-1H-imidazo[4,5-d]pyridazin-4-amine], the EC50 in the assay on IL29 (24 h) turned out to be 0.3 nM; in the assay with TNF-α (24 h) it was 284 nM; on human TLR7, 33 nM.
As for `CCCCc1nc2c(N)nnc(OC(C)C)c2n1Cc1ccc(CN)cc1` [Compound 22, 1-(4-(aminomethyl)benzyl)-2-butyl-7-isopropoxy-1H-imidazo[4,5-d]pyridazin-4-amine 2,2,2-trifluoroacetate], the EC50 in the assay with IL29 (24 h, 2,2,2-trifluoroacetate) was 0.1 nM; with TNF-α (24 h, 2,2,2-trifluoroacetate), 2790 nM; at human TLR7, 30 nM.
For the compound `CCCCc1nc2c(N)nnc(OC(C)C)c2n1Cc1cccc(CN)c1` [Compound 33, 1-(3-(aminomethyl)benzyl)-2-butyl-7-isopropoxy-1H-imidazo[4,5-d]pyridazin-4-amine 2,2,2-trifluoroacetate], the EC50 came to 2 nM in the assay on IL29 (Homo sapiens, PBMC, 24 h); 1280 nM in the assay on TNF-α (Homo sapiens, PBMC, 24 h); 392 nM on human TLR7.
For the compound `CCCCc1nc2c(N)nnc(OC(C)C)c2n1Cc1ccc(C=O)cc1` [Compound 34, 4-((4-amino-2-butyl-7-isopropoxy-1H-imidazo[4,5-d]pyridazin-1-yl)methyl)benzaldehyde], the EC50 in the assay on IL29 (Homo sapiens, PBMC, 24 h) was determined as 28 nM; in the assay on TNF-α (Homo sapiens, PBMC, 24 h), 655 nM; at human TLR7, 116 nM.
Regarding `CCCCc1nc2c(N)nnc(OC(C)C)c2n1Cc1ccc(CO)cc1` [Compound 35, (4-((4-amino-2-butyl-7-isopropoxy-1H-imidazo[4,5-d]pyridazin-1-yl)methyl)phenyl)methanol], the EC50 worked out at 15 nM in the assay on IL29 (Homo sapiens, PBMC, 24 h); 343 nM in the assay on TNF-α (Homo sapiens, PBMC, 24 h); 106 nM on human TLR7.
As to `CCCCc1nc2c(N)nnc(N(C)C)c2n1C` [Compound 41, 2-butyl-N7,N7,1-trimethyl-1H-imidazo[4,5-d]pyridazine-4,7-diamine], the EC50 with IL29 (Homo sapiens, PBMC, 24 h) is 3040 nM; in the assay on TNF-α (Homo sapiens, PBMC, 24 h), 5200 nM; on human TLR7, 3070 nM.
The corresponding values for `CCCCc1nc2c(N)nnc(OCC)c2n1Cc1ccc(OC)cc1` [Compound 48, 2-butyl-7-ethoxy-1-(4-methoxybenzyl)-1H-imidazo[4,5-d]pyridazin-4-amine] are 99 nM, 903 nM and 160 nM.
As to `CCCCc1nc2c(N)nnc(NCCOC)c2n1Cc1ccc(OC)cc1` [Compound 49, 2-butyl-1-(4-methoxybenzyl)-N7-(2-methoxyethyl)-1H-imidazo[4,5-d]pyridazine-4,7-diamine], the EC50 stood at 388 nM with IL29 (Homo sapiens, PBMC, 24 h); 5490 nM in the assay with TNF-α (Homo sapiens, PBMC, 24 h); 353 nM on human TLR7.
For `CCCCc1nc2c(N)nnc(N(C)C)c2n1Cc1ccc(OC)cc1` [Compound 71, 2-butyl-1-(4-methoxybenzyl)-N7,N7-dimethyl-1H-imidazo[4,5-d]pyridazine-4,7-diamine], the EC50 was 57 nM in the assay on IL29 (Homo sapiens, PBMC, 24 h); 1740 nM in the assay with TNF-α (Homo sapiens, PBMC, 24 h); 291 nM on human TLR7.
On to `CCCCc1nc2c(N)nnc(OC(C)C)c2n1Cc1ccccn1` [Compound 75, 2-butyl-7-isopropoxy-1-(pyridin-2-ylmethyl)-1H-imidazo[4,5-d]pyridazin-4-amine], for which the EC50 turned out to be 34 nM in the assay with IL29 (Homo sapiens, PBMC, 24 h); 5120 nM in the assay on TNF-α (Homo sapiens, PBMC, 24 h); 179 nM on human TLR7.
The corresponding values for `CCCCc1nc2c(N)nnc(N3CCC(c4ccccc4)C3)c2n1C` (stereo not drawn) [Compound 89, 2-butyl-1-methyl-7-(3-phenylpyrrolidin-1-yl)-1H-imidazo[4,5-d]pyridazin-4-amine] are 214 nM, 2350 nM and 1200 nM.
